Source: patent US9441012B2, “Fluorinated epoxyketone-based compounds and uses thereof as proteasome inhibitors” (FLUORINOV PHARMA INC., priority 2012, dated 2016)

Experiments:
CCRF-CEM = experiment: NCI 60 human tumor cell line screen (SRB); type: cell-based; conditions: CCRF-CEM (Leukemia); 48 h
HOP-62 = experiment: NCI 60 human tumor cell line screen (SRB); type: cell-based; conditions: HOP-62 (Non-Small Cell Lung Cancer); 48 h
NCI-H460 = experiment: NCI 60 human tumor cell line screen (SRB); type: cell-based; conditions: NCI-H460 (Non-Small Cell Lung Cancer); 48 h
NCI-H522 = experiment: NCI 60 human tumor cell line screen (SRB); type: cell-based; conditions: NCI-H522 (Non-Small Cell Lung Cancer); 48 h
CAKI-1 = experiment: NCI 60 human tumor cell line screen (SRB); type: cell-based; conditions: CAKI-1 (Renal Cancer); 48 h
RXF 393 = experiment: NCI 60 human tumor cell line screen (SRB); type: cell-based; conditions: RXF 393 (Renal Cancer); 48 h
SN12C = experiment: NCI 60 human tumor cell line screen (SRB); type: cell-based; conditions: SN12C (Renal Cancer); 48 h
T-47D = experiment: NCI 60 human tumor cell line screen (SRB); type: cell-based; conditions: T-47D (Breast Cancer); 48 h
[1] = molecular target: T1, chymotrypsin-like (CT-L) proteasome activity (Mus musculus, UniProt O55234); experiment: Proteasome subunit activity in murine red blood cells after oral administration; type: in vivo, NOD/SCID mice; conditions: oral gavage, Example 1 50 mg/kg, Example 26 60 mg/kg
T1 construct: RBCs were lysed with assay lysis buffer and incubated on ice for 30 minutes; from tissue; host or cells: red blood cells of NOD/SCID mice after oral dosing
T1 sequence (O55234 60-264): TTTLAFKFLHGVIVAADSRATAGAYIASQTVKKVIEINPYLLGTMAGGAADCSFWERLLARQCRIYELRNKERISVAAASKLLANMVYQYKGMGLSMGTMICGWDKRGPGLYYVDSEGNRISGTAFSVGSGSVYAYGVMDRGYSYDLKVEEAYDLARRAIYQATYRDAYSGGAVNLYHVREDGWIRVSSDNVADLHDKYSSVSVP
Method: Cells were harvested by centrifugation at 1,200 rpm at room temperature. Cell pellets were washed with PBS and lysed with assay lysis buffer (50 mM HEPES (N-2-hydroxyethylpiperazine-N′-2-ethanesulfonic acid), pH 7.5; 150 mM NaCl; 1% Triton X-100; 2 mM ATP). Cell lysates were incubated on ice for 30 minutes, mixed by vortex every 5 minutes, and then centrifuged at 12,000 g for 10 minutes. The supernatant was transferred to a 96-well plate. For each assay, 10 μg of total protein were incubated for 1 hour at 37° C. with increasing concentrations (1 nM to 10 μM) of test compound diluted in assay buffer (50 mM Tris-HCl (tris(hydroxymethyl)aminomethane-HCl), pH 7.5; 150 mM NaCl). DMSO alone was used as a control in every assay plate. After incubation, a specific fluorogenic proteasome substrate was added to each assay reaction at a final concentration of 40 μM in a total volume of 100 μL. N-Succinyl-Leu-Leu-Val-Tyr-7-amino-4-methylcoumarin (Suc-Leu-Leu-Val-Tyr-AMC) was used for measuring chymotrypsin-like (CT-L) activity, t-butoxycarbonyl-Leu-Arg-Arg-7-amino-4-methylcoumarin (Boc-Leu-Arg-Arg-AMC) for trypsin-like (T-L) activity, and benzyloxycarbonyl-L-leucyl-L-leucyl-L-glutamyl-7-amino-4-methylcoumarin (Z-Leu-Leu-Glu-AMC) for caspase-like (C-L) activity. The excitation wavelength was set at 360 nm and the fluorescence emission wavelength of AMC was detected at 460 nm. The fluorescence of free AMC released during the enzymatic reaction was measured with a SpectraMax M5 fluorescent spectrophotometric plate reader (Molecular Devices, Sunnyvale, Calif.). AMC release rate was measured at 37° C. in a kinetic mode, recording every 5 minutes for 30 minutes. Experiments were performed in triplicate and repeated at least twice.
All mouse experiments were performed in accordance with approval from the Ontario Cancer Institute institutional animal review board. Five- to six-week-old male non-obese diabetic/severe combined immunodeficient (NOD/SCID) mice were grouped randomly (n=3 mice per group). Mice were administered vehicle (5% DMSO, 20% Cremophor) or compounds of Formula I at different doses either intravenously or by oral gavage, and venous blood samples (20-50 μL) were collected from each mouse over 24 hours. Blood samples were mixed with heparin (APP Pharmaceuticals; Schaumburg, Ill.) in 0.5 mL tubes in accordance with the manufacturer's instructions. After centrifugal separation at 3,000 g for 10 minutes, red blood cells (RBCs) in the bottom layer were transferred into a new tube and stored at −70° C. until use. RBCs were lysed with assay lysis buffer and incubated on ice for 30 minutes, mixing by vortex every 5 minutes, and then centrifuged at 12,000 g for 10 minutes. The supernatant was transferred to a 96-well plate and proteasome activity was measured as described in above for tumor cell lysates.
Proteasome subunit activity (Chymotrypsin-like, Trypsin-like, Caspase-like, CT-L, T-L, C-L, respectively) were monitored over the course of 24 hrs following […] administration of representative compounds of Formula I. NOD/SCID mice were treated with the compound from Example 1 (50 mg/kg by oral gavage) and the compound from Example 26 (60 mg/kg by oral gavage) or vehicle control for up to 24 hours, as described above.
Table 10 summarizes the data for the representative compounds of Formula (I); the compounds of Examples 1 and 26.

[2] = test system: high molecular weight ubiquitylated proteins in LP1 cells; experiment: Immunoblotting assay of ubiquitylated proteins; type: cell-based; conditions: Homo sapiens, LP-1, read-out: IC50 (increase of ubiquitylated proteins, immunoblot)
Method: Whole cell lysates were prepared from LP1 cells in RIPA lysis buffer. Anti-ubiquitin antibody was purchased from Cell Signaling Technology Inc, (Danvers, Mass.) and anti-tubulin antibody was purchased from Sigma-Aldrich (St. Louis, Mo.). Secondary horseradish peroxidase-conjugated goat anti-mouse or anti-rabbit IgG was purchased from Amersham Bioscience (Piscataway, N.J.). Detection was performed using an enhanced chemiluminescence kit from Pierce, (Rockford, Ill.).

SK-MEL-2 = experiment: NCI 60 human tumor cell line screen (SRB); type: cell-based; conditions: SK-MEL-2 (Melanoma); 48 h

Row | Compound | Log10GI50 (HOP-62) | Log10LC50 (HOP-62) | Log10TGI50 (HOP-62) | Log10GI50 (NCI-H460) | Log10LC50 (NCI-H460) | Log10TGI50 (NCI-H460) | Log10GI50 (NCI-H522) | Log10LC50 (NCI-H522) | Log10TGI50 (NCI-H522) | Log10GI50 (CAKI-1) | Log10LC50 (CAKI-1) | Log10TGI50 (CAKI-1) | Log10GI50 (RXF 393) | Log10LC50 (RXF 393) | Log10TGI50 (RXF 393) | Log10GI50 (SN12C) | Log10LC50 (SN12C) | Log10TGI50 (SN12C) | Log10GI50 (T-47D) | Log10TGI50 (T-47D) | also measured
1 | Cc1ncc(C(=O)N[C@@H](COC(F)F)C(=O)N[C@@H](COC(F)F)C(=O)N[C@@H](Cc2ccccc2)C(=O)[C@@]2(C)CO2)s1 [Example 1, 2-methyl-thiazole-5-carboxylic acid ((S)-1-{(S)-1-[(S)-1-benzyl-2-((R)-2-methyloxiranyl)-2-oxo-ethylcarbamoyl]-2-difluoromethoxyethylcarbamoyl}-2-difluoromethoxyethyl)-amide] | −6.41 | >−4.00 | >−4.00 | −6.48 | −5.12 | −5.84 | −6.86 | −4.15 | −6.15 | −6.40 | >−4.00 | −5.28 | −6.79 | −6.02 | −6.41 | −6.54 | −4.03 | −5.29 | −6.59 | >−4.00 | Log10GI50 (CCRF-CEM): −7.26; Log10LC50 (CCRF-CEM): >−4.00; Log10TGI50 (CCRF-CEM): >−4.00; chymotrypsin-like (CT-L) mean residual activity relative to vehicle treated controls ([1]; 30 min): 27%; chymotrypsin-like (CT-L) mean residual activity relative to vehicle treated controls ([1]; 24 hours): 22%; chymotrypsin-like (CT-L) mean residual activity relative to vehicle treated controls ([1]; time 0): 100%; IC50 [2]: < 50 nM
2 | C[C@]1(C(=O)[C@H](Cc2ccccc2)NC(=O)[C@H](COC(F)F)NC(=O)[C@H](COC(F)F)NC(=O)CN2CCOCC2)CO1 [Example 26, (S)-N-{(S)-1-[(S)-1-Benzyl-2-((R)-2-methyl-oxiranyl)-2-oxo-ethylcarbamoyl]-2-difluoromethoxyethyl}-3-difluoromethoxy-2-(2-morpholin-4-yl-acetylamino)-propio-namide] | −7.75 | −7.09 | −7.42 | −7.21 | −4.13 | −6.43 | −7.67 | >−4.00 | −7.19 | −6.72 | >−4.00 | −6.09 | −7.64 | −6.70 | −7.25 | −7.39 | −5.15 | −6.67 | −7.78 | −7.46 | Log10GI50 (SK-MEL-2): −7.54; Log10LC50 (SK-MEL-2): −5.46; Log10TGI50 (SK-MEL-2): −7.03; chymotrypsin-like (CT-L) mean residual activity relative to vehicle treated controls ([1]; 30 min): 33%; chymotrypsin-like (CT-L) mean residual activity relative to vehicle treated controls ([1]; 24 hours): 27%; chymotrypsin-like (CT-L) mean residual activity relative to vehicle treated controls ([1]; time 0): 100%
3 | CC(C)C[C@H](NC(=O)[C@H](Cc1ccccc1)NC(=O)[C@H](COC(F)F)NC(=O)CN1CCOCC1)C(=O)[C@@]1(C)CO1 [Example 25, (2S)-2-[[(2S)-3-(difluoromethoxy)-2-[(2-morpholinoacetyl)amino]propanoyl]amino]-N-[(1S)-3-methyl-1-[(2R)-2-methyloxirane-2-carbonyl]butyl]-3-phenyl-propanamide] | −7.75 | −7.09 | −7.42 | −7.21 | −4.13 | −6.43 | −7.67 | >−4.00 | −7.19 | −6.72 | >−4.00 | −6.09 | −7.64 | −6.70 | −7.25 | −7.39 | −5.15 | −6.67 | −7.78 | −7.46 | Log10GI50 (SK-MEL-2): −7.54; Log10LC50 (SK-MEL-2): −5.46; Log10TGI50 (SK-MEL-2): −7.03; IC50 [2]: < 50 nM
4 | C[C@]1(C(=O)[C@H](Cc2ccccc2)NC(=O)[C@H](Cc2ccccc2)NC(=O)[C@H](COC(F)F)NC(=O)CN2CCOCC2)CO1 [Example 29] | −7.31 | −4.32 | −6.53 | −6.49 | >−4.00 | −5.87 | −6.90 | >−4.00 | −6.17 | −6.56 | >−4.00 | −5.94 | −7.20 | −6.31 | −6.70 | −6.92 | −4.39 | −6.38 | −7.16 | −6.62 | Log10GI50 (CCRF-CEM): −7.62; Log10LC50 (CCRF-CEM): >−4.00; Log10TGI50 (CCRF-CEM): >−4.00; Log10GI50 (SK-MEL-2): −7.19; Log10LC50 (SK-MEL-2): >−4.00; Log10TGI50 (SK-MEL-2): −6.02
